Experimental data: US7704502B2, “Combinations of antibodies selective for DR5 and other therapeutic agents” (The UAB Research Foundation, priority 2000, dated 2010)

Assays:
CLL B cells = test: Apoptosis/cytotoxicity in CLL B cells in vitro; type: cell-based, human
2LMP xenografts = test: Analysis of apoptosis in xenografts (TUNEL); type: in vivo, athymic nude mice; details: day 14
Description: One group of mice was untreated. The xenografts were dissected for the study of apoptosis on day 14 after tumor cell injection. The reason for the substantial reduction in treatment intensity compared to our standard treatment protocol was to allow adequate tumor tissue for analysis on day 14. Tunel assay for apoptosis in tumor xenografts was performed as follows. Five-micron paraffin sections of tissue were mounted on Superfrost/Plus slides and heated at 58° C. for 1 h. Tissue sections were deparaffinized in three changes of xylene and rehydrated with one change of absolute ethanol, 95% ethanol, and 70% ethanol, each in 5-min increments. Then, the sections were placed in Tris-buffered saline (0.5M Tris base, 0.15 M NaCl, 0.0002% Triton X-100™, pH 7.6). Apoptotic nuclei were detected using an Apop Tag Peroxidase kit (Intergen, Purchase, N.Y.). Proteinase K (20 μg/ml in distilled deionized H2O) was added to the tissue specimens and incubated at room temperature for 15 min. Endogenous peroxidases were quenched with an aqueous solution of 3% hydrogen peroxide for 5 min. Sections were treated with an equilibration buffer for 30 min and then incubated with the TdT/enzyme (diluted in labeling reaction mix) for 1 h at 37° C. using parafilm covers. During this incubation, the TdT enzyme binds the 3′-OH ends of DNA fragments and catalyzes the addition of digoxigenin-labeled and unlabeled deoxynucleotides. Negative controls were incubated with distilled H2O (diluted in labeling reaction mix) instead of the TdT enzyme. A stop buffer was added for 10 min at room temperature to terminate the labeling reaction. An anti-digoxigenin conjugate was added to each slide for 30 min. The chromagen 3,3′ DAB was used to visualize the labeled 3′ OH end of DNA fragments. The slides were then rinsed in deionized water and lightly counterstained with hematoxylin, dehydrated using graded alcohols and xylene and coverlsipped using Permount. Approximately 10 random fields were evaluated for percentage of Tunel stained and percentage of intensely stained apoptotic bodies throughout the tissue.

[1] = system: 2LMP human breast cancer xenografts; test: TRA-8 therapy alone or with chemotherapy or radiation, breast cancer xenografts; type: in vivo, athymic nude mice; details: aggregate of 6 experiments
Description: Athymic nude mice were injected s.c. with 3×10^7 2LMP cells. […] The growth of tumors was monitored over time. […] Tumor size and regression rates were determined.
Data from 6 independent experiments were analyzed by individual experiment. Treatment combinations were compared with respect to in vivo anti-tumor efficacy, i.e., inhibition of tumor growth, which was measured as three endpoints; extension of tumor doubling times, percentage of tumor regressions, and growth rates over time. The actual number of days at which the tumor doubled in surface area (product of two diameters) relative to baseline on day 7 after tumor cell injection was used in the doubling time analysis. The nonparametric Kruskal-Wallis test was used for median tumor doubling time comparisons between treatments. Fisher's exact test was used to compare the proportions of tumor regressions and relapse-free regressions across treatment groups. To determine if any combination therapy produced significant synergistic inhibition of tumor growth, i.e., more than additive, the growth curves from the serial area measurements were compared using a linear mixed model approach over the first 3 weeks after start of therapy (Lindsey, J. K. Models for Repeated Measurements, pp. 100-142, Oxford, 1993). To test for synergistic effects of the combination therapies, an interaction term was included in the model. If the interaction term was significant and the effect was inhibition of growth at a rate greater than additive then the interaction was considered synergistic.
A total of 166 animals, 10 treatment groups, and 6 independent experiments were included in the aggregate analysis. Treatment combinations were compared with respect to in vivo anti-tumor efficacy. The median tumor doubling times were analyzed using the Kruskal-Wallis test and Fisher's exact test was used to compare the proportions of tumor regressions and relapse-free regressions across treatment groups.

PC-3 cells = test: Combination study of TRA-8 with Paclitaxel (XTT); type: cell-based, human; details: Paclitaxel alone, concentrations of up to 200 nM
Description: Human prostate cancer cell line PC-3 is obtained from American Tissue Culture Collection (ATCC) and maintained in F-12K Nutrient Mixture (21127-022, Gibco BRL) containing 10% fetal bovine serum (FBS, Hyclone), 1% L-Glutamine-200 mM (25030-149, Gibco BRL) and 0.5% Penicillin Streptomycin Solution (P-7539, Sigma). RPMI1640 medium (MED-008, IWAKI) supplemented with 10% FBS and 0.5% Penicillin Streptomycin Solution is used in the following experiment. Exponentially growing PC-3 cells are collected by trypsinization and washed twice with fresh medium. The cells are then counted, resuspended in fresh medium at a density of 5×10^4 cells/ml and distributed in triplicate into flat-bottomed 96 well plates (3598, Corning-Coster) in a total volume of 100 μl/well one day before the start of the experiment. A representative anti-cancer drug, Paclitaxel (169-18611, Wako) dissolved in dimethylsulfoxide (10 mg/ml) is diluted in fresh medium and then added to the 96-well plates containing the cells at 50 μl/well. The final concentrations of dimethylsulfoxide are less than 0.1%. […] After incubation for a further 24 hr, 50 μl of Minimum Essential Medium (11095-098, Gibco BRL) containing 1 mg/ml of XTT and […] of PMS is added to the wells and the plates are incubated for 6 hr. OD450 is then measured by SPECTRA MAX 250 (Molecular Devices) and the cell viability is calculated as follows.

Jurkat cells = test: Apoptosis-inducing activity of humanized antibody (XTT, 12 hours); type: cell-based, human; details: serial 2-fold dilutions from 100 ng/ml
Description: Jurkat cells cultured in RPMI1640 medium with 10% FCS (Gibco BRL) at 37° C. for 3 days in the presence of 5% CO2 are dispensed into each well of a 96-well microplate (Sumitomo Bakelite) at 50 μl per well. […] Each of the solutions of the expression products thus adjusted to 100 ng/ml is used to produce serial dilutions by repeating serial 2-fold dilution with RPM11640 containing 10% FCS. […] After reacting at 37° C. for 12 hours, 50 μl of 25 μM PMS (phenazine methosulfate; Sigma Chemical Co.) containing 1 mg/ml XTT (2,3-bis[2-methoxy-4-nitro-5-sulfophenyl]-2H-tetrazolium-5-carboxyaniride inner salt; Sigma Chemical Co.) is added (final concentrations of 250 μg/ml for XTT and 5 μM for PMS). After incubating for 3 hours, the absorbance at 450 nm of each well is measured to calculate the cell viability by using the reduction ability of mitochondria as the index.
The viability of the cells in each well is calculated according to the following formula: Viability(%)=100×(a−b)/(c−b) wherein “a” is the measurement of a test well, “b” is the measurement of a well with no cells, and “c” is the measurement of a well with no antibody added.

With `Cn1cc(C2=C(c3cn(CCCN)c4ccccc34)C(=O)NC2=O)c2ccccc21` [BisVIII, Bisindolylmaleimide VIII] the “sensitivity to induced cytotoxicity” value (CLL B cells) was “sensitive”.

With `CC(=O)O[C@H]1C(=O)[C@@]2(C)[C@H]([C@H](OC(=O)c3ccccc3)[C@]3(O)C[C@H](OC(=O)[C@H](O)[C@@H](NC(=O)c4ccccc4)c4ccccc4)C(C)=C1C3(C)C)[C@]1(OC(C)=O)CO[C@@H]1C[C@@H]2O` [Paclitaxel] the TUNEL stained cells (2LMP xenografts; 100 μg TRA-8 days 7, 10, adriamycin 3 mg/kg or paclitaxel 10 mg/kg days 8, 11, untreated 4%) was 7%, the intensely stained cells (2LMP xenografts; same regimen, untreated 1%) was 2% and the “Complete Regressions No relapse (%)” value ([1]; number of animals (%)) was 0. For the same molecule, the “Complete Regressions Total (%)” value ([1]; number of animals (%)) was 0, the “Tumor Doubling Time (mean)” value ([1]; relative to day 7) was 25 days and the “Tumor Doubling Time (median)” value ([1]; relative to day 7) was 20 days. For the same molecule, the cell viability remaining (PC-3 cells) was “more than 40%”.

B1: humanized TRA-8: humanized TRA-8 of Example 20, cotransfection of pHB14-1 and pSR/M2-1 (H2 heavy, LM2 light chain) (antibody)
VH: EVMLVESGGGLVQPGGSLRLSCAASGFTFSSYVMSWVRQAPGKGLEWVATISSGGSYTYYPDSVKGRFTISRDNAKNTLYLQMNSLRAEDTAVYYCARRGDSMITTDYWGQGTLVTVSS
light: DIVMTQSPSSLSASVGDRVTITCKASQDVGTAVAWYQQKPGKAPKLLIYWASTRHTGVPSRFSGSGSGTDFTLTISSLQPEDFATYYCQQYSSYRTFGQGTKVEIKRTVAAPSVFIFPPSDEQLKSGTASVVCLLNNFYPREAKVQWKVDNALQSGNSQESVTEQDSKDSTYSLSSTLTLSKADYEKHKVYACEVTHQGLSSPVTKSFNRGEC
With B1 the induction of apoptosis (Jurkat cells) was “induce apoptosis”.
